Key:
[1] = target: T1, C-terminal His6-tagged human JAK2 kinase (Homo sapiens, UniProt O60674); test: JAK2 Amplified Luminescent Proximity Homogeneous Assay (ALPHA) (Method 3); format: biochemical; conditions: biotinylated Tyk substrate, 20 minutes preincubation, 90 minutes at 25° C.
T1 construct: His6 (C); purchased Upstate Biotechnology, MA 14-640; host or cells: baculovirus in Sf21 cells
Procedure: Activity of purified C-terminal His6-tagged human JAK2 kinase was determined in-vitro using an Amplified Luminescent Proximity Homogeneous Assay (ALPHA) (Perkin Elmer, MA), which measures phosphorylation of a biotinylated Tyk ([…]) substrate (Cell Signaling Technology, MA, Cat #2200B). Commercially available JAK2 (amino acids 808-end, Genbank Accession number NM 004972, Upstate Biotechnology, MA, Catalog 14-640) was expressed by baculovirus in Sf21 cells and affinity purified by Ni^+2/NTA agarose.
The phosphorylation of Tyk substrate in the presence and absence of the compound of interest was determined. Briefly, 5 μl of Enzyme/Substrate/adenosine triphosphate (ATP) mix consisting of 1.44 nM JAK2, 192 nM Tyk, and 12 mM ATP in 1.2× buffer was preincubated with 2 μl of compound for 20 minutes at 25° C. […] Phosphorylated substrate was detected by an EnVision plate reader (Perkin Elmer, MA) 680 nm excitation, 520-620 nm emission. Data was graphed and IC50s calculated using Excel Fit (Microsoft).

[2] = target: T2, N-terminal GST-tagged, recombinant, human JAK2 (amino acids 831-1132) (Homo sapiens, UniProt O60674); test: JAK2 mobility shift assay on Caliper LC3000 (Method 2); format: biochemical; conditions: 0.3 nM JAK2 enzyme, 5 mM ATP, 1.5 μM SRCtide, 90 minutes room temperature
T2 construct: human JAK2 (amino acids 831-1132, PLAZA database pAZB0359); GST (N); host or cells: insect cells
Procedure: Janus kinase 2 (JAK2) activity was also determined by measuring the kinase's ability to phosphorylate a tyrosine residue within a peptide substrate using a mobility shift assay on a Caliper LC3000 reader (Caliper, Hopkinton, Mass.), which measures fluorescence of the phosphorylated and unphosphorylated substrate and calculates a ratiometric value to determine percent turnover.
To measure JAK2 kinase activity, an in-house purified enzyme was used. […] After incubation of the kinase with a FAM labeled SRCtide substrate, adenosine triphosphate (ATP), and MgCl2 for 90 minutes at room temperature, the kinase reaction was stopped by the addition of 36 mM ethylenediaminetetraacetic acid (EDTA). The reaction was performed in 384 well microtitre plates and the reaction products were detected using the Caliper LC3000 Reader.

T1 sequence (O60674 808-1132 limits assumed): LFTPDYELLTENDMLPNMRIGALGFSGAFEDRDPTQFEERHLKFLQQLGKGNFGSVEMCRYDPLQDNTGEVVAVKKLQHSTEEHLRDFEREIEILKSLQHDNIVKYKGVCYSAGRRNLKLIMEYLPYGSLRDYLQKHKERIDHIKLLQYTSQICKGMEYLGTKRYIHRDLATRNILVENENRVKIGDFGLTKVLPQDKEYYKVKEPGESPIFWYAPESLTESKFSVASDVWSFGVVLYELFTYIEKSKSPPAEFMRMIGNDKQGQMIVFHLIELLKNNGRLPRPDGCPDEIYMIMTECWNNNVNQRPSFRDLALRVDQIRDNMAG
T2 sequence (O60674 831-1132): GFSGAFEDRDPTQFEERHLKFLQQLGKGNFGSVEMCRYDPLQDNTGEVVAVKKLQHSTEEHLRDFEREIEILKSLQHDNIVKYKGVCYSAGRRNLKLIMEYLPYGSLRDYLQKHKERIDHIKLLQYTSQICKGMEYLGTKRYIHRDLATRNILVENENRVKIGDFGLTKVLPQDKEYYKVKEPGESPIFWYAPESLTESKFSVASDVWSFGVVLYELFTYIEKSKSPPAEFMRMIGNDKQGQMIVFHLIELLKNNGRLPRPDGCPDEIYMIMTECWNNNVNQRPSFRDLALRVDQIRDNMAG

IC50 [1] [µM] | IC50 [2] [µM] | Compound
2.9 |  | CC(Nc1nc(Nc2cn(C)cn2)c2cc[nH]c2n1)c1ncc(F)cc1F (single isomer, unassigned) [Example 25(a), N^2-[1-(3,5-Difluoropyridin-2-yl)ethyl]-N^4-(1-methyl-1H-imidazol-4-yl)-7H-pyrrolo[2,3-d]pyrimidine-2,4-diamine]
13.7 |  | CCn1ncc2c(Nc3cn(C)cn3)nc(NC(C)c3ncc(F)cn3)nc21 (single isomer, unassigned) [Example 9(a), 1-Ethyl-N^6-[1-(5-fluoropyrimidin-2-yl)ethyl]-N^4-(1-methyl-1H-imidazol-4-yl)-1H-pyrazolo[3,4-d]pyrimidine-4,6-diamine]
 | 0.01 | CC(Nc1nc(Nc2cn(C)cn2)c2cc[nH]c2n1)c1ncc(F)cc1F (single isomer, unassigned) [Example 25(b), N^2-[1-(3,5-Difluoropyridin-2-yl)ethyl]-N^4-(1-methyl-1H-imidazol-4-yl)-7H-pyrrolo[2,3-d]pyrimidine-2,4-diamine]
 | 0.047 | C[C@H](Nc1nc(Nc2cn(C)cn2)c2ccc(O)nc2n1)c1ncc(F)cn1 [Example 34, 2-{[(1S)-1-(5-Fluoropyrimidin-2-yl)ethyl]amino}-4-[(1-methyl-1H-imidazol-4-yl)amino]pyrido[2,3-d]pyrimidin-7-ol]
